Assays:
HER2 INS YVMA = target: T1, HER2 INS YVMA (Homo sapiens, UniProt P04626, INS775YVMA); test: Lance Kinase Activity Assay, HER2 INS YVMA (Her2 Exon 20 INSYVMA Lance); format: biochemical; settings: biochemical Lance assay
T1 construct: purchased DPF
Outline: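 Kinase phosphorylates a ULight-labelled peptide substrate; Eu anti-phospho antibody gives TR-FRET (ex 340 nm, em 665/615 nm). Compounds in 1:3 serial dilution over 8 steps, reaction started with ATP, 1 h at room temperature, stopped with EDTA-containing detection mix for 1 h. IC50 from sigmoidal dose-response curves.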

[1] = target: Her2 Exon 20 INSYVMA Ba/F3 (Homo sapiens, UniProt P04626, DUP772-775, cells depend on it); test: Her2 Exon 20 INSYVMA Ba/F3 CellTiter-Glo; format: cell-based; settings: CellTiter-Glo, 72 h, read-out: Her2 Exon 20 INSYVMA Ba/F3 CTG IC50
Her2 Exon 20 INSYVMA Ba/F3, sequence (P04626 with tags, fused parts or gaps DUP772-775): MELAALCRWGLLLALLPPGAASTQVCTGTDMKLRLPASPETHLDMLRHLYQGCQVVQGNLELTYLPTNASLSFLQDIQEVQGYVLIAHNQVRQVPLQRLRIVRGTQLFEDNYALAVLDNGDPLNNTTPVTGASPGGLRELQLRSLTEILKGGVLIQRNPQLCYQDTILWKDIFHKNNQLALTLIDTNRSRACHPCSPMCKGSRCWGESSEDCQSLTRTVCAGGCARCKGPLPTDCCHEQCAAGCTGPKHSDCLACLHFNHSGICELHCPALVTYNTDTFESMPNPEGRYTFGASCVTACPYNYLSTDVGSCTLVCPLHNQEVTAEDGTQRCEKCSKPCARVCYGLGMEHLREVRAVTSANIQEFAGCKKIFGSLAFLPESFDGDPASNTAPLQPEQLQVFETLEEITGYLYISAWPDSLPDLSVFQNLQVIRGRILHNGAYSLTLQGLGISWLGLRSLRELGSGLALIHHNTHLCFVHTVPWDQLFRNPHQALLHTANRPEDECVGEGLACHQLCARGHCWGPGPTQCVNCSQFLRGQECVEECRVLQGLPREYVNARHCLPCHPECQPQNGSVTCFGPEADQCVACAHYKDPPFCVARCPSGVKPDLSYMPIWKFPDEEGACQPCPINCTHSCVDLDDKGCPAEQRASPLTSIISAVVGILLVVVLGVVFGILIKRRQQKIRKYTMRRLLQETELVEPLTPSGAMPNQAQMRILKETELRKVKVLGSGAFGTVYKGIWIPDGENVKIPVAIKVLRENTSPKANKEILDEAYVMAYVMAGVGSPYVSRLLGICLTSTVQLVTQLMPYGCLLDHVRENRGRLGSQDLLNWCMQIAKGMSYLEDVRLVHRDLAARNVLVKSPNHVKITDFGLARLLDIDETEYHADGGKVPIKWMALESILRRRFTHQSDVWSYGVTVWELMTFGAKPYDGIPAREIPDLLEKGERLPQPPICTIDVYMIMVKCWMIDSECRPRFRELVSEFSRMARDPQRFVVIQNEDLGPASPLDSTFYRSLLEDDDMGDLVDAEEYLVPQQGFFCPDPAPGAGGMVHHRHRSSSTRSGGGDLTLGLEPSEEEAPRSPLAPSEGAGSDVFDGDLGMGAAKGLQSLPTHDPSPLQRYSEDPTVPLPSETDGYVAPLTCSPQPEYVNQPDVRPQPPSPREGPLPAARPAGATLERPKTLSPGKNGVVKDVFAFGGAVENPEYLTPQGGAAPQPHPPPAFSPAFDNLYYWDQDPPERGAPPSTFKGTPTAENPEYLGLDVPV
Outline: (§1)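 Ba/F3 cells dependent on the mutant kinase, seeded and grown 24 h, then treated with compound for 72 h at 37 °C, 5% CO2. Viability by CellTiter-Glo ATP luminescence versus DMSO and 10 μM staurosporine controls; IC50 from dose-response fit, plates accepted at Z′ ≥0.5; bins A ≤100 nM to E >10000 nM.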

EGFR T790ML858R = EGFR T790ML858R (Homo sapiens, UniProt P00533, L858R/T790M); test: EGFR T790ML858R Lance assay; format: biochemical
Method: (§2) Inhibition is indicated as […] [nM] (“−”=not measured). Compounds having an activity designated as “A” provided an IC50≤100 nM; compounds having an activity designated as “B” provided an 100 nM<IC50≤500 nM; compounds having an activity designated as “C” provided an 500 nM<IC50≤1000 nM; compounds having an activity designated as “D” provided an 1000 nM<IC50≤100000 nM; and compounds having an activity designated as “E” provided an IC50>10000 nM.

[2] = target: EGFR Exon 20 INSNPH Ba/F3 (Homo sapiens, UniProt P00533, DUP771-773, cells depend on it); test: EGFR Exon 20 INSNPH Ba/F3 CellTiter-Glo; format: cell-based; settings: CellTiter-Glo, 72 h, read-out: EGFR Exon 20 INSNPH Ba/F3 CTG IC50
EGFR Exon 20 INSNPH Ba/F3, sequence (P00533 with tags, fused parts or gaps DUP771-773): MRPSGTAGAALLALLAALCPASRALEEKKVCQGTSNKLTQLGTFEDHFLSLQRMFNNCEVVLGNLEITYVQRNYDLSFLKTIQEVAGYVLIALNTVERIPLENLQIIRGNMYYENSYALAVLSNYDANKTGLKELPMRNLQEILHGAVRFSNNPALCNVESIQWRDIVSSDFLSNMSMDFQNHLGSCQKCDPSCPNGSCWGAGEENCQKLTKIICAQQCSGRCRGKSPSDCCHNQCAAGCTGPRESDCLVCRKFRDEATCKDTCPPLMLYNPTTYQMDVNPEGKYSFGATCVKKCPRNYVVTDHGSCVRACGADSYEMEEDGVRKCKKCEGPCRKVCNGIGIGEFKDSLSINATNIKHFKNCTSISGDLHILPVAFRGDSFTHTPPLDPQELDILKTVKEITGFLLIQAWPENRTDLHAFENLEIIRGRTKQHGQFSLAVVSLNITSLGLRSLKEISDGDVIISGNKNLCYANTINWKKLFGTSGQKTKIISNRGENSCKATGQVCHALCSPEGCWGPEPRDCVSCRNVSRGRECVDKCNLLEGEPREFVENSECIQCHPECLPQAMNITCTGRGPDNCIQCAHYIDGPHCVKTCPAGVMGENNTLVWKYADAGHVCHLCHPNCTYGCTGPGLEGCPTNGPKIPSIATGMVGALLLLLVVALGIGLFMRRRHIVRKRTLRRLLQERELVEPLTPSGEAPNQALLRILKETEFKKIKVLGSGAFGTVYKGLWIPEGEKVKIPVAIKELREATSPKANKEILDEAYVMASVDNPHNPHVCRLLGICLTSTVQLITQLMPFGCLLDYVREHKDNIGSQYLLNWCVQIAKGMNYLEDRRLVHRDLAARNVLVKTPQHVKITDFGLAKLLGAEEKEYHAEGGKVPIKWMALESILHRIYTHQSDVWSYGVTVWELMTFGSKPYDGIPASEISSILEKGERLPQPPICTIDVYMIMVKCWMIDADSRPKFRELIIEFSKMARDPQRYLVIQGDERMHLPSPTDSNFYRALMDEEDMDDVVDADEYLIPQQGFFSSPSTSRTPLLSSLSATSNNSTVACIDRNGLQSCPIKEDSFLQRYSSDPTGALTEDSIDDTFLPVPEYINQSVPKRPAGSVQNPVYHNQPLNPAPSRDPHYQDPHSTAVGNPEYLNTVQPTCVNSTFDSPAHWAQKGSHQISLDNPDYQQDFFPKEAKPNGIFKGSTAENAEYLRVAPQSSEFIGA
Outline: as §1

EGFR wt = EGFR wt (Homo sapiens, UniProt P00533); test: EGFR wt Lance assay; format: biochemical
EGFR wt, sequence (P00533 25-1210): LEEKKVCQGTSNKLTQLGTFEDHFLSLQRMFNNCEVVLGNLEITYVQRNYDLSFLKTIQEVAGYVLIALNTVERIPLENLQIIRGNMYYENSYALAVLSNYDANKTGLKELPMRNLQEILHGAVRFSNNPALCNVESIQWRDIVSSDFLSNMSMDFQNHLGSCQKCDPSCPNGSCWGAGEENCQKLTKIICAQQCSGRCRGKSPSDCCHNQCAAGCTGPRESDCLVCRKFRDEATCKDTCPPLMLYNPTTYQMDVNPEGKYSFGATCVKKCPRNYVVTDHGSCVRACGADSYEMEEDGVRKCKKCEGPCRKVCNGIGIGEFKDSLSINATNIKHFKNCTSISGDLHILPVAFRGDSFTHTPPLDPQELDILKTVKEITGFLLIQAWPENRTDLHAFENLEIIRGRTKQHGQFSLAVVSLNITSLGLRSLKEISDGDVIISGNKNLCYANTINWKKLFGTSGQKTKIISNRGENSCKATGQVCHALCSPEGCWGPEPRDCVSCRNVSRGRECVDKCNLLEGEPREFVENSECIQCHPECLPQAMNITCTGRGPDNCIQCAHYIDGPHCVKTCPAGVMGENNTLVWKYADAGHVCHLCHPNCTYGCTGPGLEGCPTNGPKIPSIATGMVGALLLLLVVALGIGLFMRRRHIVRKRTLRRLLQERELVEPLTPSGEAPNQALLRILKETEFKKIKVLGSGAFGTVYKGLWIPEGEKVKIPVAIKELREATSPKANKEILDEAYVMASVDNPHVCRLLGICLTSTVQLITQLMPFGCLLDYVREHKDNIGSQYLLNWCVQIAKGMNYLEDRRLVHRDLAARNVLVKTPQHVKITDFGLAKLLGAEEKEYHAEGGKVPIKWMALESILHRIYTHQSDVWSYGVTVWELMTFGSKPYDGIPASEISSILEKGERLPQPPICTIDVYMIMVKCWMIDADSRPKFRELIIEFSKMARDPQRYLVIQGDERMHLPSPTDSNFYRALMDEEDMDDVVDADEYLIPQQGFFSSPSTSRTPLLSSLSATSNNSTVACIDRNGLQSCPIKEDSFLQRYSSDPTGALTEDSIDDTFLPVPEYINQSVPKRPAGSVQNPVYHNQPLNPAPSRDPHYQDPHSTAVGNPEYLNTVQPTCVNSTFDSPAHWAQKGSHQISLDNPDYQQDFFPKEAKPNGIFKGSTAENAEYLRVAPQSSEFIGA
Method: as §2

A431 = A431 CellTiter-Glo; format: cell-based; settings: Homo sapiens, A-431; 72 h compound incubation; read-out: A431 CTG IC50
Outline: (§3)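 Antiproliferative IC50 values come from a 72 h treatment of cultured cells, measured by CellTiter-Glo ATP luminescence. Only runs with a Z′-factor of at least 0.5, calculated from 16 vehicle and 16 Staurosporine (10 μM) control wells, are reported.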

H1975 = H1975 CellTiter-Glo; format: cell-based; settings: Homo sapiens, NCI-H1975; 72 h compound incubation; read-out: H1975 CTG IC50
Outline: as §3

T1 sequence (P04626 with tags, fused parts or gaps INS775YVMA): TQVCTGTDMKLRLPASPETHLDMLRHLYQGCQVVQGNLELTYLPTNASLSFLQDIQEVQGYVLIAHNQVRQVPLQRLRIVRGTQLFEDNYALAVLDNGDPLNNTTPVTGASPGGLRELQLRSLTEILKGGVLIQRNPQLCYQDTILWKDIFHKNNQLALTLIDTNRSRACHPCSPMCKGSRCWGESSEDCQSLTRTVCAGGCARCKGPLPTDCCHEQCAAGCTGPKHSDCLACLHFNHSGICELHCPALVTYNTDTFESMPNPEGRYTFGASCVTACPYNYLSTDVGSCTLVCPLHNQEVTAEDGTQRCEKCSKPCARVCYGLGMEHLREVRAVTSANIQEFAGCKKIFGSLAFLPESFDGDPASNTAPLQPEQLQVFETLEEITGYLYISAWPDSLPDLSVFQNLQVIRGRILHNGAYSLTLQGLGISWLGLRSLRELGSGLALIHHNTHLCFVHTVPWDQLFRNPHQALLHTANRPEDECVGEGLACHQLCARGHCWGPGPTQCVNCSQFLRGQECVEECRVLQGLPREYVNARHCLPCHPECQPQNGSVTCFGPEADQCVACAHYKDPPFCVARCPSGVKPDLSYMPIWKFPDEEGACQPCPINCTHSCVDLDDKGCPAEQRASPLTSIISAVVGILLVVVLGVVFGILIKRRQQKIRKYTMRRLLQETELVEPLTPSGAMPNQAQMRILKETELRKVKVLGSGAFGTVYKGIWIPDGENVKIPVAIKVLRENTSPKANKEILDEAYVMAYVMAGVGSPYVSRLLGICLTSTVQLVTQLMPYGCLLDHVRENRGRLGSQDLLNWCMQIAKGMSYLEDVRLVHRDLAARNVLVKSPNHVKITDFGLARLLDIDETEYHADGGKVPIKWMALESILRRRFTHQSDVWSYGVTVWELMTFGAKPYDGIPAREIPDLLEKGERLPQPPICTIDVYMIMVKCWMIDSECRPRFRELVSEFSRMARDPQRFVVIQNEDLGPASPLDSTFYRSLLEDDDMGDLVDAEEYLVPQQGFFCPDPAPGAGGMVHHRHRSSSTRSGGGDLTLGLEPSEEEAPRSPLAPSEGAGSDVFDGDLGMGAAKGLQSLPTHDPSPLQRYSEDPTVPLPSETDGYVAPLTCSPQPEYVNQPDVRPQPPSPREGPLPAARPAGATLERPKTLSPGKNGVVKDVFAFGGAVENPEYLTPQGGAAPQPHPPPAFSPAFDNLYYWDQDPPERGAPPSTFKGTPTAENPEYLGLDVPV

Compound	IC50 (HER2 INS YVMA) [nM]	GI50 [1] [nM]	IC50 (EGFR T790ML858R) [nM]	GI50 [2] [nM]	IC50 (EGFR wt) [nM]	IC50 (A431) [nM]	IC50 (H1975) [nM]
C=CC(=O)Nc1cc(-c2c(-c3ccc(N4CCN(C)CC4)cc3)[nH]c3ncc(OC(F)(F)F)cc23)ccc1C [Example 188, N-(2-methyl-5-(2-(4-(4-methylpiperazin-1-yl)phenyl)-5-(trifluoromethoxy)-1H-pyrrolo[2,3-b]pyridin-3-yl)phenyl)acrylamide 2,2,2-trifluoroacetate]	≤ 100	100 to 500	≤ 100	100 to 500	≤ 100	1000 to 100000	100 to 500
C=CC(=O)Nc1cc(-c2c(-c3ccc(N4CCN(C)CC4)cc3)[nH]c3ncc(CC(=O)O)cc23)ccc1C [Example 189, 2-(3-(3-acrylamido-4-methylphenyl)-2-(4-(4-methylpiperazin-1-yl)phenyl)-1H-pyrrolo[2,3-b]pyridin-5-yl)acetic acid 2,2,2-trifluoroacetate]	≤ 100	> 10000	≤ 100	> 10000	≤ 100	> 10000	> 10000
C=CC(=O)N1CCc2ccc(-c3c(-c4ccc(N5CCN(C)CC5)cc4)[nH]c4ncc(C(=O)OC(C)C)cc34)cc21 [Example 192, isoproyl 3-(1-acryloylindolin-6-yl)-2-(4-(4-methylpiperazin-1-yl)phenyl)-1H-pyrrolo[2,3-b]pyridine-5-carboxylate 2,2,2-trifluoroacetate]	≤ 100	100 to 500	≤ 100	500 to 1000	≤ 100	1000 to 100000	1000 to 100000
C=CC(=O)Nc1cc(-c2c(-c3ccc(N4CCN(C)CC4)cc3)[nH]c3ncc(CC(=O)N(C)C)cc23)ccc1C [Example 194, N-(5-(5-(2-(dimethylamino)-2-oxoethyl)-2-(4-(4-methylpiperazin-1-yl)phenyl)-1H-pyrrolo[2,3-b]pyridin-3-yl)-2-methylphenyl)acrylamide 2,2,2-trifluoroacetate]	≤ 100	1000 to 10000	≤ 100	1000 to 10000	≤ 100	1000 to 100000	1000 to 100000
C=CC(=O)Nc1cc(-c2c(-c3ccc(N4CCN(C)CC4)cc3)[nH]c3ncc(CC(=O)OC)cc23)ccc1C [Example 195, methyl 2-(3-(3-acrylamido-4-methylphenyl)-2-(4-(4-methylpiperazin-1-yl)phenyl)-1H-pyrrolo[2,3-b]pyridin-5-yl)acetate]	≤ 100	100 to 500	≤ 100	100 to 500	≤ 100	1000 to 100000	100 to 500
C=CC(=O)Nc1cc(-c2c(-c3ccc(N4CCN(C)CC4)cc3)[nH]c3ncc(NC(=O)C(C)C)cc23)ccc1C [Example 200, N-(5-(5-isobutyramido-2-(4-(4-methylpiperazin-1-yl)phenyl)-1H-pyrrolo[2,3-b]pyridin-3-yl)-2-methylphenyl)acrylamide 2,2,2-trifluoroacetate]	≤ 100	100 to 500	≤ 100	100 to 500	≤ 100	1000 to 100000	1000 to 100000
C=CC(=O)Nc1cc(-c2c(-c3ccc(N4CCN(C)CC4)cc3)[nH]c3ncc(NC(C)=O)cc23)ccc1C [Example 201, N-(5-(5-acetamido-2-(4-(4-methylpiperazin-1-yl)phenyl)-1H-pyrrolo[2,3-b]pyridin-3-yl)-2-methylphenyl)acrylamide]	≤ 100	1000 to 10000	≤ 100	1000 to 10000	≤ 100	1000 to 100000	1000 to 100000
C=CC(=O)Nc1cc(-c2c(-c3ccc(N4CCN(C)CC4)cc3)[nH]c3ncc(C(=O)OC(C)C)cc23)c(C)cc1C [Example 202, isoproyl 3-(5-acrylamido-2,4-dimethylphenyl)-2-(4-(4-methylpiperazin-1-yl)phenyl)-1H-pyrrolo[2,3-b]pyridine-5-carboxylate 2,2,2-trifluoroacetate]	1000 to 10000	1000 to 10000	100 to 500	1000 to 10000	≤ 100	> 10000	1000 to 100000
C=CC(=O)NCc1cccc(-c2c(-c3ccc(N4CCN(C)CC4)cc3)[nH]c3ncc(C(=O)OC(C)C)cc23)c1 [Example 203, isopropyl 3-(3-(acrylamidomethyl)phenyl)-2-(4-(4-methylpiperazin-1-yl)phenyl)-1H-pyrrolo[2,3-b]pyridine-5-carboxylate 2,2,2-trifluoroacetate]	1000 to 10000	1000 to 10000	500 to 1000	1000 to 10000	100 to 500	1000 to 100000	1000 to 100000
C=CC(=O)Nc1cc(-c2c(-c3ccc(N(C)CCN(C)C)cc3)[nH]c3ncc(C(=O)OC(C)C)c(C)c23)ccc1C [Example 204, isopropyl 3-(3-acrylamido-4-methylphenyl)-2-(4-((2-(dimethylamino)ethyl)(methyl)amino)phenyl)-4-methyl-1H-pyrrolo[2,3-b]pyridine-5-carboxylate]	≤ 100	≤ 100	≤ 100	≤ 100	≤ 100	1000 to 100000	100 to 500

Now from value to molecule:

IC50 (HER2 INS YVMA) [nM]	GI50 [1] [nM]	IC50 (EGFR T790ML858R) [nM]	GI50 [2] [nM]	IC50 (EGFR wt) [nM]	IC50 (A431) [nM]	IC50 (H1975) [nM]	Compound
100 to 500	1000 to 10000	100 to 500	1000 to 10000	≤ 100	1000 to 100000	1000 to 100000	C=CC(=O)Nc1cc(-c2c(-c3cccc(CN4CCN(C(C)=O)CC4)c3)[nH]c3ncc(C(=O)OC(C)C)cc23)ccc1C [Example 186, isopropyl 2-(3-((4-acetylpiperazin-1-yl)methyl)phenyl)-3-(3-acrylamido-4-methylphenyl)-1H-pyrrolo[2,3-b]pyridine-5-carboxylate]
≤ 100	100 to 500	≤ 100	100 to 500	≤ 100	1000 to 100000	100 to 500	C=CC(=O)Nc1cc(-c2c(-c3ccc(N4CCN(C)CC4)cc3)[nH]c3ncc(CC(=O)OC(C)C)cc23)ccc1C [Example 190, isopropyl 2-(3-(3-acrylamido-4-methylphenyl)-2-(4-(4-methylpiperazin-1-yl)phenyl)-1H-pyrrolo[2,3-b]pyridin-5-yl)acetate 2,2,2-trifluoroacetate]
≤ 100	100 to 500	≤ 100	100 to 500	≤ 100	1000 to 100000	≤ 100	C=CC(=O)Nc1cc(-c2c(-c3ccc(N4CCN(C)CC4)cc3)[nH]c3ncc(CC)cc23)ccc1C [Example 191, N-(5-(5-ethyl-2-(4-(4-methylpiperazin-1-yl)phenyl)-1H-pyrrolo[2,3-b]pyridin-3-yl)-2-methylphenyl)acrylamide 2,2,2-trifluoroacetate]
≤ 100	≤ 100	≤ 100	100 to 500	≤ 100	1000 to 100000	100 to 500	C=CC(=O)Nc1cc(-c2c(-c3ccc(N4CCN(C)CC4)cc3)[nH]c3ncc(OCC)cc23)ccc1C [Example 193, N-(5-(5-ethoxy-2-(4-(4-methylpiperazin-1-yl)phenyl)-1H-pyrrolo[2,3-b]pyridin-3-yl)-2-methylphenyl)acrylamide 2,2,2-trifluoroacetate]
≤ 100	1000 to 10000	≤ 100	100 to 500	≤ 100	1000 to 100000	500 to 1000	C=CC(=O)Nc1cc(-c2c(-c3ccc(N4CCN(C)CC4)cc3)[nH]c3ncc(CC(=O)OC4COC4)cc23)ccc1C [Example 197, oxetan-3-yl 2-(3-(3-acrylamido-4-methylphenyl)-2-(4-(4-methylpiperazin-1-yl)phenyl)-1H-pyrrolo[2,3-b]pyridin-5-yl)acetate]
≤ 100	500 to 1000	≤ 100	100 to 500	≤ 100	1000 to 100000	100 to 500	C=CC(=O)Nc1cc(-c2c(-c3ccc(N4CCN(C)CC4)cc3)[nH]c3ncc(CO)cc23)ccc1C [Example 199, N-(5-(5-(hydroxymethyl)-2-(4-(4-methylpiperazin-1-yl)phenyl)-1H-pyrrolo[2,3-b]pyridin-3-yl)-2-methylphenyl)acrylamide 2,2,2-trifluoroacetate]

— patent US20220370440A1 (Lead Discovery Center GmbH, priority 2018, published 2022)
